According to patent publication US11377427B2, “Triazoles for regulating intracellular calcium homeostasis” (UNIVERSIDAD DEL PAIS VASCO, priority 2016, dated 2022):
Values belong to the molecule of their own block, whether it stands above or below them.

Assays:
[1] = test system: left ventricle of a rat heart; details: concentrations of 10^-6 M; in vitro; without affecting left ventricular heart rate or pressure; cited from earlier work
mdx mice [2] = assay: Exacerbated defense response (freezing) after acute stress in mdx mice; format: in vivo, mouse; details: four-month old mdx mice; five-week treatment, 0.25 mg/mL in drinking water; FIG. 7
Description: To determine the effect of the compounds according to the invention on the heart and CNS, four-month old mice were treated for 5 weeks with compound AHK2 in drinking water at a concentration of 0.25 mg/mL. The four-month old mdx mice show an exacerbated defense response after acute stress which is independent of motor, cardiac and respiratory deficiencies, and is controlled by central mechanisms (FIG. 7). Acute stress was brought about by means of manual immobilizations for 15 seconds in a posture commonly used for performing intraperitoneal injections. After acute stress, the mice are monitored for 1 minute and the % of freezing time or tonic immobility periods of at least 1 second with 90% immobility sensitivity is calculated.

mdx mice [3] = assay: Grip strength of dystrophic mdx mice; format: in vivo, mouse; details: 0.25 mg/mL in drinking water, one-month old mdx mice
Description: One-month old male dystrophic mdx mice supplied by Jackson Laboratory (https://www.jax.org/strain/001801) were used. The biological assays for measuring the effect of the Ahulken (AHK) compounds on muscle function were performed with one-month old mice, whereas the in vivo assays for determining the effect on the heart and CNS were performed with four-month old mice. The one-month old mice were treated with compound AHK1 or compound AHK2 for 5 weeks, where said compounds were administered in drinking water at a concentration of 0.25 mg/mL. The muscle strength of the front paws was measured every week using a grip strength meter and the obtained value was normalized by the body weight of the animal. To that end, the indications described in the TREAT-NMD Neuromuscular Network protocol (http://www.treat-nmd.eu/downloads/file/sops/dmd/MDX/DMD_M.2.2.001.pdf) were followed.

mdx mice [4] = assay: Isoproterenol-induced cardiomyopathy in mdx mice (Evans Blue uptake); format: in vivo, mouse; details: four-month old mdx mice; 5-week treatment, 0.25 mg/mL in drinking water; FIG. 8
Description: The myocardium of the four-month old dystrophic mdx mice is highly susceptible to mechanical stress and the compound isoproterenol induces cardiomyopathy in these mice (FIG. 8). Cardiomyocyte sarcolemma integrity was determined by means of measuring the uptake of Evans Blue dye that accumulates in cardiomyocytes with membrane damage. Evans Blue was administered 24 hours before extracting the hearts at a concentration of 10 mg/ml by means of intraperitoneal injection (10 μl/g of body weight). Damage with isoproterenol was carried out by means of 3 sequential intraperitoneal injections of beta-isoproterenol (350 ng/g of body weight) 18, 20 and 22 hours after administering Evans Blue in order to determine the degree of muscle damage. Cell-death derived regeneration was determined in muscle cryosections by means of quantifying the percentage of central nuclei, using standard immunofluorescence techniques for detecting collagen IV and cell nuclei.

[5] = test system: fibers isolated from mouse flexor digitorum brevis muscle (dystrophic MDX fibers); assay: Baseline intracellular calcium levels in mouse muscle fibers (Fura 2-AM); format: cell-based; details: 150 nM, overnight treatment; FIG. 2
Description: Fibers isolated from mouse flexor digitorum brevis muscle were cultured overnight in the presence or absence of compounds AHK1 and AHK2 at a concentration of 150 nM. Baseline intracellular calcium levels were evaluated by means of incubating the fibers with Fura 2-AM ratiometric fluorochrome (4 μM) and pluronic acid (0.02%) for 30 minutes at 37° C., in the culture medium. The fibers were viewed with a high-resolution digital camera and intracellular [Ca^2+] was estimated by means of a 340 nm/380 nm excitation ratio.

[6] = test system: human control myotubes LHCN-M2; assay: In vitro toxicity in human myotubes, CytoTox 96 colorimetric assay; format: cell-based; details: 24 hours of incubation
Description: These assays were carried out in human control myotubes LHCN-M2 after 14 days in differentiation medium. To determine the toxicity of the different analyzed compounds, particularly AHK1 and AHK2 according to the invention, these compounds were added to the culture medium for 24 hours at 37° C. at different concentrations (0-2 mM). For comparison purposes, the same assay was performed by adding reference compound S-107. Cell viability was determined by means of Cytotox 96 (Promega) colorimetric assay following instructions in the manual.

mdx mice [7] = assay: Muscle degeneration/regeneration: percentage of central nuclei in muscle cryosections of mdx mice; format: in vivo, mouse; details: 5-week treatment of mdx mice; 0.25 mg/mL in drinking water; FIG. 5
Description: After concluding the 5-week treatment, the tibialis anterior muscle was obtained and processed for subsequent biochemical and immunohistological analysis to determine the degree of muscle damage. Cell-death derived regeneration was determined in muscle cryosections by means of quantifying the percentage of central nuclei using standard immunofluorescence techniques for detecting collagen IV and cell nuclei.

[8] = target: T1, RyR1-calstabin1 interaction (Homo sapiens, UniProt P21817+P62942); assay: RyR1-calstabin1 interaction by in situ PLA in human myotubes under SIN1 nitro-oxidative stress; format: cell-based; details: pre-treated 12 hours at 150 nM; SIN1 5 mM 30 minutes; FIG. 3
T1 construct: endogenous in cells; host or cells: LHCN-M2 human myotubes (differentiated for 9 days)
T1 sequence (P21817 whole entry): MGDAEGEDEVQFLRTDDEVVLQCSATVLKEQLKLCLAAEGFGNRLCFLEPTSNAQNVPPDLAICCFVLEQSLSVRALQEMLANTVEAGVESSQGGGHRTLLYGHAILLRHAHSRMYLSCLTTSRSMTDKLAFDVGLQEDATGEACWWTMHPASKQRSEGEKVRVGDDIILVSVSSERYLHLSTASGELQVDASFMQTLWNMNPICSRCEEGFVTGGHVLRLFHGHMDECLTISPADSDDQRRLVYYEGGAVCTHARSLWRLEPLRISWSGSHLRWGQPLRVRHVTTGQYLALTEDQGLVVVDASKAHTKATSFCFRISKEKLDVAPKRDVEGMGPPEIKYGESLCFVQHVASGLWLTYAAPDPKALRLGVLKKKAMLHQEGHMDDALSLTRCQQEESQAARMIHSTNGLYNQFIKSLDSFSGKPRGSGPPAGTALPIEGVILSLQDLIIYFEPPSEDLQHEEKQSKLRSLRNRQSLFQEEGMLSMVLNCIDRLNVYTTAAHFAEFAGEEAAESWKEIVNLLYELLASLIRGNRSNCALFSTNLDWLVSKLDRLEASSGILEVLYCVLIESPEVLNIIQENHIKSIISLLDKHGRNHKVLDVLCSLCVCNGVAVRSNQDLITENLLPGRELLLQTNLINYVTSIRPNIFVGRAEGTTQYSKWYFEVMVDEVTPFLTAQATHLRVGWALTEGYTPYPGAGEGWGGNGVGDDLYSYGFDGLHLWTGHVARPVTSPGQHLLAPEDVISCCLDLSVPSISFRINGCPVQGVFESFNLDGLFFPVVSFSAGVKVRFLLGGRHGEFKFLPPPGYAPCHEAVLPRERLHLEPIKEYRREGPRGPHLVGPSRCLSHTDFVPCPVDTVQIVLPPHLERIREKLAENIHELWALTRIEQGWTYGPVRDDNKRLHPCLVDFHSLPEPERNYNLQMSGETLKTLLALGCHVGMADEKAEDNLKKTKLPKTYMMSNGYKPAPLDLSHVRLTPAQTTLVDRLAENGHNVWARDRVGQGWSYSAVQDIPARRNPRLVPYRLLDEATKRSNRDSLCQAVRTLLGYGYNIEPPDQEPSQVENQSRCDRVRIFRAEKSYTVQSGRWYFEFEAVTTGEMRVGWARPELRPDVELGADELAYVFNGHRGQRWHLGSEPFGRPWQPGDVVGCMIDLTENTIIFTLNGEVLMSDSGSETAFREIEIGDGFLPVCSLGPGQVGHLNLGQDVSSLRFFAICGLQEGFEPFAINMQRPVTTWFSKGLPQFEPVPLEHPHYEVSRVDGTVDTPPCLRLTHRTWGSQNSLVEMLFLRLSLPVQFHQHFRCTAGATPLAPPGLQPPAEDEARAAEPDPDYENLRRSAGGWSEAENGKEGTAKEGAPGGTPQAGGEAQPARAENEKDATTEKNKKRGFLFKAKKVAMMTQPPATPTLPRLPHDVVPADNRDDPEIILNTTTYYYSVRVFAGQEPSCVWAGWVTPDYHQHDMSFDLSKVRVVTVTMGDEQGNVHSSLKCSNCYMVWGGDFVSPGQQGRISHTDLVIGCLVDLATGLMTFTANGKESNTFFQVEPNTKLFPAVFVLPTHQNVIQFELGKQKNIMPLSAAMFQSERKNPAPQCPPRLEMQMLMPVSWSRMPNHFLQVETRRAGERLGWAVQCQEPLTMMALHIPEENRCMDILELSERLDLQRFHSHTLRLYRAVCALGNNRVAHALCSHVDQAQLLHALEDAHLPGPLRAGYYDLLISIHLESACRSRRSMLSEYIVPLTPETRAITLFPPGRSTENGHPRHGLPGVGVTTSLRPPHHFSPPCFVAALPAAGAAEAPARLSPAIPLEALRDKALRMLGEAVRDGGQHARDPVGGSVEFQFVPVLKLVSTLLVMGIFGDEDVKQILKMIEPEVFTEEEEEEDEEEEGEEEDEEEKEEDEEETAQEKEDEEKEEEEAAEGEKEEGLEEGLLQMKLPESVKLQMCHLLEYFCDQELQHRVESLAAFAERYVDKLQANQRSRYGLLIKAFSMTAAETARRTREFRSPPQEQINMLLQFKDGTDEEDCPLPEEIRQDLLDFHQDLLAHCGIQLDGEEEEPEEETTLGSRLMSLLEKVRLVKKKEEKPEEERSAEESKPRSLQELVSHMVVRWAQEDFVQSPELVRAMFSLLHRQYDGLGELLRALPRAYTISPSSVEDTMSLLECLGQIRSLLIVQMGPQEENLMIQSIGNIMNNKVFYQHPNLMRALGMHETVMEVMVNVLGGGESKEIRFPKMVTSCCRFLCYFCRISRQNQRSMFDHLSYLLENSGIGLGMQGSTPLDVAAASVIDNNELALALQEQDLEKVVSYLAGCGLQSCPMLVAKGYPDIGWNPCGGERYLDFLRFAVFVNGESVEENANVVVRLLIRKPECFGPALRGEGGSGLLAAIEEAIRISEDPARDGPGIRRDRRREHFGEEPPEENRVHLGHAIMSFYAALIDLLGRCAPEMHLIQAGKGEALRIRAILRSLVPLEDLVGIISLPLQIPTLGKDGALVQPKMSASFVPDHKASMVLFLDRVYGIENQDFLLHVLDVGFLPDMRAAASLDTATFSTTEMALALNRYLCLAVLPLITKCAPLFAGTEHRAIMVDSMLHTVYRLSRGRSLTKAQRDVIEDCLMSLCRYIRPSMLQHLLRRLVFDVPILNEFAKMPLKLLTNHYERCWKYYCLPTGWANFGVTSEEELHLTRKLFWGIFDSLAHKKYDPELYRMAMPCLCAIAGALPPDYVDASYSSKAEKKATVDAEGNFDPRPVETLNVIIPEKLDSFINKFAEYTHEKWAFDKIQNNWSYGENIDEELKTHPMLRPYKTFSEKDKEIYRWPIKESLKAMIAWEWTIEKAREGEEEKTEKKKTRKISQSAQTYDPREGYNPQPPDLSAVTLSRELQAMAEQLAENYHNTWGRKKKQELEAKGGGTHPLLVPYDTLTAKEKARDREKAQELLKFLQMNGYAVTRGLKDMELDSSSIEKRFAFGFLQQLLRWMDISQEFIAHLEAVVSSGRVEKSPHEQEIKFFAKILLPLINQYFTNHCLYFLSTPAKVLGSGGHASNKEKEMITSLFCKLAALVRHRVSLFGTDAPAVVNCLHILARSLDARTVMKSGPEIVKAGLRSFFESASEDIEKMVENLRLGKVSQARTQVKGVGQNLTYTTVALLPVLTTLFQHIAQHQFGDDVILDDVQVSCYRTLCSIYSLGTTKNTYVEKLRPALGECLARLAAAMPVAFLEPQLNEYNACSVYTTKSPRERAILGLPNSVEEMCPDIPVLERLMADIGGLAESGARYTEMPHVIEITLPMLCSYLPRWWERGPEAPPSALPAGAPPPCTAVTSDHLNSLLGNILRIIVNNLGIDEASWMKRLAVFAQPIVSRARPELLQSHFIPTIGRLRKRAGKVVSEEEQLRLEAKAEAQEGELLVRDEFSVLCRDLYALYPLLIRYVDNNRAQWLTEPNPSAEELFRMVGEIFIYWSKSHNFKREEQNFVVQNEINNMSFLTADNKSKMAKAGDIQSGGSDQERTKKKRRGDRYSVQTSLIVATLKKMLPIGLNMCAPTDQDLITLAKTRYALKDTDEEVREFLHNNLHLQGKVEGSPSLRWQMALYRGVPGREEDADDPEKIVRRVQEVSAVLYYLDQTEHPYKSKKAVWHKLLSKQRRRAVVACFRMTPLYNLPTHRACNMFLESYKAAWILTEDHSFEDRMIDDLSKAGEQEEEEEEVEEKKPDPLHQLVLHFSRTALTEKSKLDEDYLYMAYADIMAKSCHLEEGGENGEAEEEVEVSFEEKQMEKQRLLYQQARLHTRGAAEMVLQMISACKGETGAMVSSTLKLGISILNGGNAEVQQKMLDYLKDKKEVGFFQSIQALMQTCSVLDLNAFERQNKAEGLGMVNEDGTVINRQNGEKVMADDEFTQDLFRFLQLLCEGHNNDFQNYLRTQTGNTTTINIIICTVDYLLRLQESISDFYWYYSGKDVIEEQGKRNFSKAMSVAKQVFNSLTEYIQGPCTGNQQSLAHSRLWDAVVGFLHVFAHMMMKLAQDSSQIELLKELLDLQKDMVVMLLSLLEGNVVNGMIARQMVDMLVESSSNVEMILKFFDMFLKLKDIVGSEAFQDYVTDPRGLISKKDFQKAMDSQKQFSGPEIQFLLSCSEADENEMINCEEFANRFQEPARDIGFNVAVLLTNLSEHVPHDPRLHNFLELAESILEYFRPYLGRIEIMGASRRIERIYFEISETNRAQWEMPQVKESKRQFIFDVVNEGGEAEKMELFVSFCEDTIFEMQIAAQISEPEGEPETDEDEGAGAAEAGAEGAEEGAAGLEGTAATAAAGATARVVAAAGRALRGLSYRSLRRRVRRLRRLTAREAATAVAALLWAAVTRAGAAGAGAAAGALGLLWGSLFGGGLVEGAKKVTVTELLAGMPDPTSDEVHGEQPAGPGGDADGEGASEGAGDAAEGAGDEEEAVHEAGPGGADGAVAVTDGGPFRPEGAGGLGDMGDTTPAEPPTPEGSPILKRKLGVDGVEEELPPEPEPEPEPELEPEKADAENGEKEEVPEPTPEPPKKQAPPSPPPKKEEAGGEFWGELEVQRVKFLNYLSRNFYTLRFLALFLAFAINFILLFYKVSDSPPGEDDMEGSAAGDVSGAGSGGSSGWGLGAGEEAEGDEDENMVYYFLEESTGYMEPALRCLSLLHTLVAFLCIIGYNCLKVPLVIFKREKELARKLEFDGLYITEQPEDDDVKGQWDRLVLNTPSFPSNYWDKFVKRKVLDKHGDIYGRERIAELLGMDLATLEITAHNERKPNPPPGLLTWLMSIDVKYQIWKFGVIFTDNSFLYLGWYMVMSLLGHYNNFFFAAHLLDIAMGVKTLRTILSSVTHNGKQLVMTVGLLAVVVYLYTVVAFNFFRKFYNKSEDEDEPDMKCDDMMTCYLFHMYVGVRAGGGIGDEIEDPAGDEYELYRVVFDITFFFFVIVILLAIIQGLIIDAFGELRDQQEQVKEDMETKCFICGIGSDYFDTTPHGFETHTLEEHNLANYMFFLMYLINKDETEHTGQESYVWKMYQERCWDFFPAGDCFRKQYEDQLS
T1 sequence (P62942 2-108 limits assumed): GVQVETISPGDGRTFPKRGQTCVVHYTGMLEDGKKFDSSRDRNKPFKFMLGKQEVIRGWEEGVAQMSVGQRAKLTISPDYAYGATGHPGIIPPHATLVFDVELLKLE
Description: This assay was carried out in human control myotubes LHCN-M2 after 9 days in differentiation medium. Said myotubes were pre-treated for 12 hours with compounds AHK1 and AHK2 at a concentration of 150 nM. After treatment, the myotubes were subjected to peroxynitrite-induced nitro-oxidative stress by means of the addition of SIN1 (5 mM) for 30 minutes. RyR1-calstabin colocalization was analyzed by means of the in situ proximity ligation technique (in situ PLA) for which Sigma's Duolink II Network Fluorescence Kit and RyR1- and calstabin 1-specific antibodies were used. This technique allows detecting the exact location of two antigens located at a distance less than 40 nm from one another. To determine RyR1-calstabin-1 colocalization, 3 photographs were quantified for each condition with about 9 myotubes per field, using Image J computer software (http://rsb.info.nih.gov/ij/download.html). The colocalization area in each image was normalized to the myosin expression area, which was determined by means of immunofluorescence with a fluorescein-conjugated specific antibody.

Molecule: 4-[3-(4-benzylpiperidinyl)-propanoyl]-2,3,4,5-tetrahydro-1,4-benzothiazepine [JTV-519]
adrenaline- and caffeine-induced myocardial necrosis [1]: inhibits

Molecule: COc1ccc(SCc2cn(CCN(C)C)nn2)cc1 [AHK2, 1-[2-(N,N-dimethylamino)ethyl]-4-[4-(methoxy)phenylthiomethyl]-1H-1,2,3-triazole]
exacerbated defense response-related CNS phenotype (% of freezing time after acute stress) (mdx mice [2]): significantly improves | grip strength compared to untreated littermates (mdx mice [3]; after 2 weeks of treatment): increased significantly | increase of muscle strength (mdx mice [3]; after 5 weeks of treatment, FIG. 4): 20% | cardiomyocyte sarcolemma integrity (Evans Blue uptake) (mdx mice [4]): increases | isoproterenol-induced damage of the myocardium (mdx mice [4]): protects the myocardium from isoproterenol-induced damage | intracellular calcium levels at rest in MDX fibers [5]: brought intracellular calcium levels back to the control levels | in vitro acute toxicity against human myotubes ([6]; concentrations between 10 nM and 2 mM, FIG. 1): do not show in vitro acute toxicity | percentage of central nuclei (mdx mice [7]): significantly reduced | dissociation of the RyR1-Calst1 complex in the presence of SIN1 [8]: partially prevented

melting point: 163 to 170 °C
Molecule: COc1ccc(SCc2cn(CC(=O)O)nn2)cc1 [Example 11, 1-carboxymethyl-4-[4-(methoxy)phenylthiomethyl]-1H-1,2,3-triazole]

melting point: 106 to 115 °C
Molecule: COc1cccc(S(=O)(=O)Cc2cn(CC(=O)O)nn2)c1 [Example 22, 1-carboxymethyl-4-[3-(methoxy)phenylsulfonylmethyl]-1H-1,2,3-triazole]

melting point: 146 to 148 °C
Molecule: O=C(O)Cn1cc(CSc2cccc(Cl)c2)nn1 [Example 23, 1-carboxymethyl-4-[3-(chloro)phenylthiomethyl]-1H-1,2,3-triazole]

Molecule: COc1ccc2c(c1)CN(C)CCS2 [Example S-107, reference compound]
cellular toxicity ([6]; concentration of 1 mM): 100%
